Measurements reported in patent US20250177299A1, “MOLECULAR COMPLEXING METHOD, FORMULATION AND MANUFACTURING FOR ENHANCED NUTRIENT DELIVERY” (Ingredient Fusion, LLC, priority 2021, published 2025).
Read-outs that look alike come from different tables or passages of the source.

Assay: long term formulation trials of natural stability and dispersion aids
Assay type: physicochemical
From the text: Additionally, popular formularies like lecithin and glycerin were trialed. […] Thus, Glycerin alone was not useful to the invention disclosed herein which requires higher loading rates to achieve improved efficacy and a simplified industrially scalable process.

Row | Compound | stability of formulation in trials (used as stabilizing/dispersion aid in nano and micro-emulsion formulations, long term trials) | stability of formulation in trials
1 | OCC(O)CO [Glycerin] | very low stability unless used in very small quantities | 
2 | pectin |  | high microbial activity
